Source: ChEMBL document CHEMBL3714740, “alpha-amino acid derivatives and medicaments containing the same as an active ingredient” (2011)
Activity calls are given as the source filed them. No cut-off for these calls is given here.

Key:
[1] = test system: DU-145; assay: Antitumor activity against human DU145 cells xenografted in nude Balb/c mouse assessed as inhibition of tumor volume at 100 mg/kg administered orally using gastric tube once daily for 14 days starting at mean tumor volume of 200 to 250 mm3; format: functional, organism-based; details: Prostate
[2] = test system: SW-620; assay: Antitumor activity against human SW620 cells xenografted in nude Balb/c mouse assessed as inhibition of tumor volume at 100 mg/kg administered orally using gastric tube once daily for 17 days starting at mean tumor volume of 200 to 250 mm3; format: functional, organism-based
[3] = Antiproliferative activity against human SW620 cells assessed as inhibition of cell proliferation incubated for 4 days by CCK8 assay; format: functional, cell-based; details: SW-620, 96 h

| SMILES | inhibition [1] | inhibition [2] | IC50 [3] |
| --- | --- | --- | --- |
| CCNC(=O)c1cc(NC(C)(C)C(=O)Nc2nc3c(C(F)(F)F)cc4[nH]ncc4c3s2)ccc1Cl | Active |  |  |
| CNC(=O)c1cc(NC2(C(=O)Nc3nc4ccc5[nH]ncc5c4s3)CC2)ccc1Cl | Active | Active |  |
| CC(C)(Nc1ccc(Cl)cc1)C(=O)Nc1nc2ccc3[nH]ncc3c2s1 | Active | Active |  |
| CC(C)(C)C(=O)Nc1cc(NC(C)(C)C(=O)Nc2nc3ccc4[nH]ncc4c3s2)ccc1Cl |  |  | 2700 nM |
| CC(C)(Nc1ccc(Cl)c(OCC(O)CO)c1)C(=O)Nc1nc2c(C(F)(F)F)cc3[nH]ncc3c2s1 (configuration not stated) | Active |  |  |
